# Measurements reported in ChEMBL document CHEMBL3507680, “University of Dundee, Gates Library screen for HepG2 cell viability”.
# Assay: Human HepG2 cell viability assay in 384 well format
# Format: toxicity, cell-based
# Design: dose 125 nL, time 70.5 hour; concentration not given beside the values
# Conditions: HepG2 cells, read-out: Inhibition
row,SMILES,cytotoxicity at 70.5 h
1,O=C(CC1COCCN1)N1CCC2(CCc3ccccc32)CC1 (stereo not given),8.47%
2,CCC[C@@H]1CN(S(=O)(=O)c2ccc3[nH]c(=O)[nH]c3c2)C[C@H]1NC(C)=O,-1.53%
3,Cc1cc(CN(C)C(=O)c2cc(COc3ccccc3)[nH]n2)n[nH]1,-3.12%
4,Cc1cccc(C)c1C(=O)N1C[C@@H](CN2CCOCC2)[C@@H](CO)C1,-7.08%
5,CCc1ccccc1OC1CN(C(=O)c2ccnc(OC)c2)C1,11.1%
6,Cc1cc(C[C@@H]2COC[C@@H]2NC(=O)CN2CCCCCC2)on1,-10.1%
7,CCOCc1nccc(-c2ccc(OCC)c(C(=O)O)c2)n1,2.25%
8,CCCn1cnnc1CNC(=O)CC1C(=O)NCCN1CC(C)(C)C (stereo not given),-12.5%
9,COc1ccc(Cn2cc(C(=O)N(C)Cc3ccn[nH]3)nn2)cc1,-18.5%
10,Cc1cc(-c2cccc3c2CCNC3)cnc1-n1cnnc1,-5.08%
11,CCc1cc(N2CCC(N[C@@H]3CS(=O)(=O)C[C@H]3O)CC2)nc(N(C)C)n1,0.303%
12,CCC[C@H]1CN(C(=O)CCn2ccccc2=O)C[C@@H]1NS(C)(=O)=O,-16.2%
13,Fc1cc(Oc2ccc(C(F)(F)F)cn2)cc(F)c1CN1CCCC1,-4.12%
14,CC(C)C1CN(c2cccc(C#N)n2)CCCN1CC1CC1 (stereo not given),-11.5%
15,Fc1ccccc1-c1noc2c1CN(CCN1CCOCC1)CC2,7.36%
16,CN(C)CCN(C)C1CCCN(C(=O)c2ccc(Cn3ccnc3)o2)C1 (stereo not given),-9.94%
17,Cc1cccc(C(C(=O)N(C)Cc2cc(C)no2)N(C)C)c1 (stereo not given),-7.53%
18,COCCCC1(CO)CCCN(CCOC)C1 (stereo not given),-4.83%
19,Cc1cccc(SC2CCN(C(=O)CCNS(C)(=O)=O)CC2)c1,-13.1%
20,Cc1cnc(NCc2cnn(C)c2)nc1-c1cnn(C)c1,13.5%
21,C[C@@H]1CN(S(=O)(=O)c2ccc(F)cc2F)C[C@]1(C)O,-1.56%
22,NC(=O)COc1ccc(CN2CC[C@@]3(O)CCCC[C@H]3C2)cc1Cl,-2.71%

row,SMILES,cytotoxicity at 70.5 h
1,c1cc(C2CCN(Cc3ccc4c(c3)OCO4)CC2)ccn1,-2.31%
2,Cc1nnc(N2CCCC(C(=O)c3cccc(Cl)c3)C2)o1 (stereo not given),-3.19%
3,O=C1OCCN1CC(=O)N1C[C@H]2CC[C@@H]1CN(C(=O)c1cccnc1)C2,-2.17%
4,CCn1ccnc1C1CCCN(c2nccc3ccccc23)C1 (stereo not given),-8.19%
5,Cc1nc(C2CCCNC2)cc(N(Cc2nccn2C)C2CC2)n1 (stereo not given),7.52%
6,CCn1ccnc1CN(C)C(C(=O)O)c1ccc(C(C)(C)C#N)cc1 (stereo not given),-4.97%
7,CCN(CC)c1ncccc1CNC(=O)c1cc2nc(C)cc(C)n2n1,-0.33%
8,Cc1nccn1CCC1CCCCN1Cc1ccc2c(c1)OCCO2 (stereo not given),14.5%
9,O=C(CCc1cc2n(n1)CCCNC2)N1CCN(C2CCCC2)C(=O)C1,-7.76%
10,Cc1ccc(CN2CCNC(=O)C2CC(=O)NCc2n[nH]c(C)n2)cc1 (stereo not given),-3.13%
11,CCCN(CCC)C(=O)c1cc(CN2CCC(O)CC2)on1,-6.98%
12,Cc1cc(N[C@H]2CCCN(Cc3ccccc3)C2)n2nc(C)cc2n1,1.66%
13,Cc1cc(C)c(C(=O)N[C@H](C(N)=O)c2ccccc2)c(=O)[nH]1,12.8%
14,Cc1noc(C)c1CN1CCCCC1CCc1ccc(O)cc1 (stereo not given),-1.36%
15,CSc1nc(N)cc(N2C[C@@H]3CC[C@H](C2)N(CC2CC2)C3=O)n1,3.27%
16,Cc1ccc(CN2CC[C@@H](NC(=O)c3cccnc3)[C@H](O)C2)o1,-13.3%
17,COc1nccnc1N1CCN(Cc2ccc(F)cc2)C(=O)C1,24.6%
18,Cc1cc(-c2nn(C)c(Cl)c2CN2CC[C@@](O)(C3CCC3)[C@H](C)C2)no1,0.567%
19,CC(C)NC(=O)N1CCC(c2nccn2C(C)C)CC1,-3.22%
20,O=C(NC1CCCCC1)N1CCC(N2Cc3ncccc3C2=O)CC1,-13.7%
21,Cc1nccc(N2CC[C@@H]3[C@@H](CCC(=O)N3CCc3ccccc3)C2)n1,-6.49%
22,Cc1ocnc1C(=O)N1CCCC1c1ccc(C(=O)N2CCSCC2)s1 (stereo not given),-7.81%

row,SMILES,cytotoxicity at 70.5 h
1,COc1ccc(OCc2cc(C(=O)N3CCSCC3)n[nH]2)c(Cl)c1,-5.04%
2,COc1cc(N2C[C@@H](C)[C@](O)(C3CC3)C2)ncn1,5.18%
3,COC(=O)c1cc(NC(=O)NCC2CCS(=O)(=O)C2)ccc1Cl (stereo not given),-0.58%
4,CCc1ccc(CN(Cc2ccco2)C(C)C(C)C)nc1 (stereo not given),1.59%
5,COC(=O)[C@H]1C[C@@H](O)CCN1S(=O)(=O)c1cc(Cl)ccc1OC,-11.2%
6,COc1cc(F)c(C(=O)NCc2ccon2)c(F)c1,-3.42%
7,O=C(c1cn(-c2ccccc2)nn1)N1CCOCC(O)C1 (stereo not given),15.7%
8,Cc1nc(-c2ccccc2)c(C(=O)N2CCC3(CC(=O)NC3=O)C2)s1 (stereo not given),-6.69%
9,Cc1ccsc1[C@@H]1CCN(C(=O)CCC(=O)c2ccccc2)C[C@H]1O,-9.94%
10,CN(CCc1cnn(C)c1)C(=O)C(c1ccccc1F)N(C)C (stereo not given),0.281%
11,CN(C)[C@@H]1C[C@@H](CO)N(C(=O)Nc2ccc(SC(F)(F)F)cc2)C1,4.27%
12,CS(=O)(=O)NCC(=O)N[C@H]1CN(c2cnccn2)C[C@@H]1C1CC1,9.56%
13,Cc1cc(C(=O)NCc2cccnc2N2CCc3ccccc3C2)[nH]n1,-3.47%
14,CCc1ncc2c(n1)CN(c1nc(C)ccc1C(=O)O)C2,-10.8%
15,O=C(c1ccc(=O)[nH]c1)N1C[C@@H]2CC[C@H](C1)N(Cc1ccccc1)C2,-8.28%
16,CC(C)[C@H](C)NC1CCN(c2ccc(-c3cscn3)cc2)CC1,-14.3%
17,Cc1nc(N(C)CCCc2nccn2C)c2c(C)nn(C)c2n1,-6.47%
18,O=C(NCc1cccnc1)C1CN(c2cnc3ccccc3n2)CCN1 (stereo not given),19.1%
19,CCc1ncc2c(n1)CN(C(=O)CNC(=O)c1ccccc1)C2,25.5%
20,CCOCC1CCN(C(=O)C(c2cccc(F)c2)N(C)C)CC1 (stereo not given),27.9%
21,Cc1c(C(C)N)cnn1-c1ccccn1 (stereo not given),-8.01%
22,Nc1ccc(-c2ccc(F)cc2Cl)cn1,-8.38%

row,SMILES,cytotoxicity at 70.5 h
1,COCCN(Cc1ccsc1)C(=O)c1c(C)cc(C)[nH]c1=O,-1.09%
2,COc1ccc(-n2c(SC)nc(O)c(Cc3ccccc3)c2=O)cc1,-2.29%
3,CCNc1ncc(C(=O)NC(CC)c2ccnn2C)cn1 (stereo not given),-5.36%
4,COCc1noc(CN2C[C@H](C3CC3)[C@@H](N(C)C)C2)n1,-8.41%
5,CCN(C)CC(=O)N1CCC(c2cc(N3CCOCC3)nc(C)n2)CC1,-11.5%
6,COc1ccc(N2CCN(C(=O)CCn3nccc3C)C(C)C2)cc1 (stereo not given),-3.13%
7,OCC1(O)CCCN(Cc2ccc(-c3cc[nH]n3)s2)CC1 (stereo not given),-9.87%
8,Cn1ccnc1C1CCCN(C(=O)c2ccc3nccnc3c2)C1 (stereo not given),2.22%
9,Cc1ccn(-c2cncc(C(N)=O)c2)n1,-14.4%
10,CCOc1ccc2nc(CN3CCC(CN)C3)ccc2c1 (stereo not given),-2.57%
11,CN(Cc1cccc(O)c1)C(=O)c1ccc(CCC(C)(C)O)cc1,0.182%
12,CC(=O)N1CCc2c(nc(-c3cccnc3)nc2N(C)CC(O)CO)C1 (stereo not given),-6.57%
13,CN(C)CCn1ccnc1C1CCCN(c2nccc3ccccc23)C1 (stereo not given),1.12%
14,CC(=O)N[C@@H]1CN(Cc2oc3ccccc3c2C)C[C@H]1c1ccc(C)o1,-7.22%
15,CCCN(Cc1ccccc1C)C(CC)CO (stereo not given),-7.79%
16,CO[C@@H]1c2ccccc2C2(CCN(C(=O)CNS(C)(=O)=O)CC2)[C@H]1O,23.4%
17,O=C(CC1COCCN1)NCCc1nc(-c2ccccn2)no1 (stereo not given),-6.55%
18,COc1cc(F)c(C(=O)N2C[C@@H](CN(C)CCO)[C@@H](CO)C2)c(F)c1,-2.86%
19,COc1ccc(Cc2c(O)nc(SC)n(-c3ccccc3)c2=O)cc1,12.6%
20,CCOc1ccc(Cc2c(O)nc(SC)n(-c3ccccc3)c2=O)cc1,-2.28%
21,COc1cccc(OCc2cc(C(=O)N3CC(O)C3)n[nH]2)c1,-2.2%
22,CCCOc1ccc(C(=O)N[C@@H]2CCNC[C@H]2O)cc1Cl,2.76%

row,SMILES,cytotoxicity at 70.5 h
1,COc1ccc(Cl)cc1C(C(=O)O)N(C)Cc1ccon1 (stereo not given),11.7%
2,CCNC(=O)[C@@H]1C[C@H](N)CN1C(=O)Cc1cc(C)ccc1C,-12.9%
3,O=C(C1CCOC1)N1CCC(OCc2ccccc2)CC1 (stereo not given),-5.49%
4,CN1CCN(C(=O)c2ccc3c(c2)nc(N2CCOCC2)n3C)CC1=O,-5.46%
5,CC1=NN(CC(=O)N2CC[C@@H]3[C@@H](CCC(=O)N3CC(C)C)C2)CC1,-1.09%
6,O=C(c1cnc(O)cn1)N(Cc1ccsc1)CC1CCCO1 (stereo not given),25.2%
7,COc1cccc(OCC2CCCN(C(=O)c3ncoc3C3CC3)C2)c1 (stereo not given),-11.7%
8,COc1ncc(-c2cc(-c3ccn(C)c3)nc(N)c2C#N)cn1,7.14%
9,CC(C)c1ccn(C2(C(=O)O)CCN(c3cc(C(N)=O)ccn3)CC2)n1,-3.6%
10,Cc1ccc2c(c1)c(CNC(=O)C1CCN(CC(N)=O)CC1)nn2C,-2.32%
11,Cc1noc(C2CCCCN2C(=O)C2CCN(C(C)C)CC2)n1 (stereo not given),5.11%
12,COCc1nc(CN2CC(=O)N(C)c3ccccc3C2=O)no1,-5.63%
13,COCCCC1CCCN(C(=O)CCc2csc(N)n2)C1 (stereo not given),-11.8%
14,Fc1cccc2ncnc(NCCCc3ccncc3)c12,-4.44%
15,Cc1nn(C)c2ncnc(NCc3nncn3C3CCCCC3)c12,-6.04%
16,O=C(c1ccco1)N1CCc2ncnc(NCc3ccccn3)c2CC1,-8.48%
17,O=C(NCc1csc(-c2cccs2)n1)C1NCCc2[nH]cnc21 (stereo not given),-19.8%
18,C=C(C)COc1cccc(CNCCc2c[nH]cn2)c1,-6.28%
19,CCc1ccc2nc(C)cc(C(=O)NC[C@@H]3CCNC[C@H]3O)c2c1,14.5%
20,CC(C)n1cnnc1CN(C)C(=O)c1ccc[nH]1,18.8%
21,Cn1cnnc1CN1CCC2(CCCN(C3CCCCC3)C2=O)C1 (stereo not given),-1.45%
22,O=C(c1cc(=O)n(-c2ccccc2)[nH]1)N1CCCC(c2ccn[nH]2)C1 (stereo not given),48%
